# Reference: patent publication US20080207560A1, “Composition For External Use” (priority 2005, published 2008)
# Assay: Solubility in phosphate buffer (statement)
# Type: physicochemical
smiles,measurement,value
CC1=C(/C=C/C(C)=C/C=C/C(C)=C/C(=O)Oc2cc(C)c3c(c2)CC[C@@](C)(CCC[C@H](C)CCC[C@H](C)CCCC(C)C)O3)C(C)(C)CCC1 [d-δ-tocopheryl retinoate],solubility in phosphate buffer,sparingly soluble
